The results in this text go back to PMC6493773, “Structure and mechanism of TagA, a novel membrane-associated glycosyltransferase that produces wall teichoic acids in pathogenic bacteria” (PLoS Pathogens, 2019).

Each structure is given as a SMILES string.

Assay [1] addresses T1, full-length TagA from S. aureus (Staphylococcus aureus, UniProt Q7A714).
T1 construct: gene tarA; full-length; strain and plasmid only in supplement
Put plainly: anion-exchange HPLC of UDP formation, […] nm. The class given is biochemical. Conditions: 200 nM enzyme; UDP-ManNAc made in situ from 100 μM UDP-GlcNAc by MnaA; 100 μM lipid-α analog; pH 7.5, 250 mM NaCl, 30°C.

The target of assay [2] is T2, full-length TagA from T. italicus (UniProt D3T4E0).
T2 construct: gene Thit_1850; full-length (195 + 49 C-terminal residues); purification details only in supplement
T2 sequence (D3T4E0 entry or part of it): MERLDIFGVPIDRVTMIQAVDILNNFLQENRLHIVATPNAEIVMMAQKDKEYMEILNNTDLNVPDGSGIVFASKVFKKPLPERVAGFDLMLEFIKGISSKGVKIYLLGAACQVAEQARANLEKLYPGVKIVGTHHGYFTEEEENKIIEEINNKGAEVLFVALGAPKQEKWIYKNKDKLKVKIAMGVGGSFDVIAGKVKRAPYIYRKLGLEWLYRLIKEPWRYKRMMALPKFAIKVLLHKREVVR
Put plainly: anion-exchange HPLC of UDP formation, […] nm. The class given is biochemical, Thermoanaerobacter thermocopriae. The note with it: 200 nM enzyme; UDP-ManNAc made in situ from 100 μM UDP-GlcNAc by MnaA; 100 μM lipid-α analog; pH 7.5, 250 mM NaCl, 30°C.

T1 sequence (Q7A714 whole entry): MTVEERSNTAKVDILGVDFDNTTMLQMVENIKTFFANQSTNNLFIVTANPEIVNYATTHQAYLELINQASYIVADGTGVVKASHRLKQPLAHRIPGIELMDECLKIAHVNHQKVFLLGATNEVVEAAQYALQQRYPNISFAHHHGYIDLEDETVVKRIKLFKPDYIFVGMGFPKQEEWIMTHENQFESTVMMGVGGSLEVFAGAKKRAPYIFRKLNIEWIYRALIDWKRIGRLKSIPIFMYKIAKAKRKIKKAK

Turning to `CC(=O)N[C@@H]1[C@@H](OP(=O)(O)OP(=O)(O)OC[C@H]2O[C@@H](n3ccc(=O)[nH]c3=O)[C@H](O)[C@@H]2O)O[C@H](CO)[C@@H](O)[C@@H]1O` [UDP-ManNAc], the “anion-exchange HPLC of UDP formation, 271 nm” value in assay [1] is “full-length TagA enzymes from T. italicus and S. aureus exhibit similar transferase activities in vitro”; in assay [2], “we reconstituted its GT activity in vitro using UDP-ManNAc and a lipid-α analog”.

As to `CCCCCCCCCCCCCOP(=O)(O)OP(=O)(O)O[C@H]1O[C@H](CO)[C@@H](O)[C@H](O)[C@H]1NC(C)=O` [lipid-α analog], in assay [2], the “anion-exchange HPLC of UDP formation, 271 nm” value is “using UDP-ManNAc and a lipid-α analog that replaces its undecaprenyl chain with tridecane”.
